Measurements reported in ChEMBL document CHEMBL4339215, “Inhibition of PCSK9D374Y/LDLR Protein-Protein Interaction by Computationally Designed T9 Lupin Peptide” (ACS Med Chem Lett, 2019).
The source made the active and inactive calls. No cut-off for these calls is given here.

What was measured:
[1] = test system: PCSK9/LDLR (Homo sapiens), Q8NBP7+P01130 [D374Y]; experiment: Binding affinity to C-terminal His tagged purified recombinant PCSK9 D374Y mutant (unknown origin) expressed in HEK293 cells assessed as reduction in PCSK9/LDLR protein-protein interaction at 100 uM by chemiluminescent assay
[2] = test system: PCSK9/LDLR (Homo sapiens), Q8NBP7+P01130 [D374Y]; experiment: (§1) Binding affinity to C-terminal His tagged purified recombinant PCSK9 D374Y mutant (unknown origin) expressed in HEK293 cells assessed as dose dependent reduction in PCSK9/LDLR protein-protein interaction at 0.1 uM to 1 mM uM by chemiluminescent assay
[3] = test system: PCSK9/LDLR (Homo sapiens), Q8NBP7+P01130 [D374Y]; experiment: Inhibition of C-terminal His tagged purified recombinant PCSK9 D374Y mutant (unknown origin) and LDLR protein-protein interaction expressed in human HepG2 cells assessed as LDLR protein expression level at cell surface at 10 uM incubated for 2 hrs by in-cell western analysis (reference value: 39.6 +/- 0.7%); type: cell-based; design: scale not given: the % may be the effect or the level left
[4] = test system: PCSK9/LDLR (Homo sapiens), Q8NBP7+P01130 [D374Y]; experiment: Inhibition of C-terminal His tagged purified recombinant PCSK9 D374Y mutant (unknown origin) and LDLR protein-protein interaction expressed in human HepG2 cells assessed as LDLR protein expression level at cell surface at 10 uM incubated for 2 hrs by in-cell western analysis relative to T9 peptide; type: cell-based; design: scale not given: the % may be the effect or the level left
[5] = test system: PCSK9/LDLR (Homo sapiens), Q8NBP7+P01130 [D374Y]; experiment: (§2) Inhibition of C-terminal His tagged purified recombinant PCSK9 D374Y mutant (unknown origin) and LDLR protein-protein interaction expressed in human HepG2 cells assessed as LDL-C uptake level at 10 uM incubated for 2 hrs by fluorescent LDL uptake cell-based assay (42.1 +/- 1.6%); design: scale not given: the % may be the effect or the level left
[6] = test system: PCSK9/LDLR (Homo sapiens), Q8NBP7+P01130 [D374Y]; experiment: as §2, with “Potency index, ratio of T9 to test compound for inhibition” for “Inhibition”, “assay” for “assay (42.1 +/- 1.6%)”
PCSK9/LDLR = PCSK9/LDLR (Homo sapiens, UniProt Q8NBP7, D374Y); experiment: as §1
Sequence of PCSK9/LDLR (Q8NBP7 whole entry D374Y, looked up): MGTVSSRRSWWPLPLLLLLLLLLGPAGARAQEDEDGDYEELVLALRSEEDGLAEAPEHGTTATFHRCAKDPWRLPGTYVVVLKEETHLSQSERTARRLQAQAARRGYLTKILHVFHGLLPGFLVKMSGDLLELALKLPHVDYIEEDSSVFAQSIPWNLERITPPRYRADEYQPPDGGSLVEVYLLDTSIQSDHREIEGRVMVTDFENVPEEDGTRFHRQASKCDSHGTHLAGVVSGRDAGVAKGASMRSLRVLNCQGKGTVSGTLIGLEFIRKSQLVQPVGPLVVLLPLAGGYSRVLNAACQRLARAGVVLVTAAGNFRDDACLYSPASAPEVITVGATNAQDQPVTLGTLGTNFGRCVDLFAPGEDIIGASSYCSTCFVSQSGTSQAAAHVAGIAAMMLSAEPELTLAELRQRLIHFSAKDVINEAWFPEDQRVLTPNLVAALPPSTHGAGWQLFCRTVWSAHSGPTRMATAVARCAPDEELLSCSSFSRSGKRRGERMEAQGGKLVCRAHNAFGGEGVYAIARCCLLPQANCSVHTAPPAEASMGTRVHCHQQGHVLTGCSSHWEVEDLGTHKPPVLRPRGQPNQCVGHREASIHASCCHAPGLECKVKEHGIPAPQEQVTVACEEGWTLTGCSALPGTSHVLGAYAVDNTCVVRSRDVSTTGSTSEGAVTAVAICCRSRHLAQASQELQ

| Compound | inhibition [1] [%] | inhibition [2] | Activity [3] [%] | Activity [4] [%] | Activity [5] [%] | Ratio [6] | IC50 (PCSK9/LDLR) [µM] |
| --- | --- | --- | --- | --- | --- | --- | --- |
| CC[C@H](C)[C@H](NC(=O)[C@@H](NC(=O)CNC(=O)[C@H](CCC(=O)O)NC(=O)[C@H](C)NC(=O)[C@H](CCC(N)=O)NC(=O)[C@H](Cc1cnc[nH]1)NC(=O)[C@H](CO)NC(=O)[C@H](CCC(N)=O)NC(=O)[C@H](CCC(=O)O)NC(=O)[C@H](CCC(N)=O)NC(=O)CN)C(C)C)C(=O)N[C@H](C(=O)N[C@@H](CCCNC(=N)N)C(=O)O)C(C)C | 31.3 | inactive | – | – | – | – | – |
| H-GQRQWKQAEGVMVR-OH | – | Dose-dependent effect | 83.8 | 12.7 | 102 | 35 | 148 |
